The supplement of paper PMC10307832

Tests used:
Assay in all cases: relative viability (nuclei count vs DMSO), 5 days (fraction); higher = more cells survive
Calu-6 = system: Calu-6
Summary of the method: (§1)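 Lung cancer cell lines in 1536-well plates were dosed by pin tool the day after seeding, either with one drug alone or with a fixed anchor-drug dose plus five library-drug doses (not always all listed) in √10 steps. After 5 days, cells were fixed and their nuclei stained in one step (final 0.05% Triton X-100, 1% formaldehyde, 1 ug/ml Hoechst), then counted on 4× images. Relative viability is the nuclei count in treated wells divided by that in vehicle wells. Values are medians of duplicate plates.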

NCI-H1944 = system: NCI-H1944
Summary of the method: as §1

NCI-H661 = system: NCI-H661
Summary of the method: as §1

SK-LU-1 = system: SK-LU-1
Summary of the method: as §1

IA-LM = system: IA-LM
Summary of the method: as §1

NCI-H1666 = system: NCI-H1666
Summary of the method: as §1

NCI-H1299 = system: NCI-H1299
Summary of the method: as §1

PC-14 = system: PC-14
Summary of the method: as §1

A549 = system: A549
Summary of the method: as §1

EBC-1 = system: EBC-1
Summary of the method: as §1

NCI-H596 = system: NCI-H596
Summary of the method: as §1

NCI-H1703 = system: NCI-H1703
Summary of the method: as §1

CN1CCN(CCOc2cc(OC3CCOCC3)c3c(Nc4c(Cl)ccc5c4OCO5)ncnc3c2)CC1 [Saracatinib] + C[C@@H](Oc1cc(-c2cnn(C3CCNCC3)c2)cnc1N)c1c(Cl)ccc(F)c1Cl [Crizotinib] (partner 1 µM)
relative viability (Calu-6; first compound 0.02 µM): 0.769
relative viability (Calu-6; first compound 0.2 µM): 0.594
relative viability (Calu-6; first compound 0.6325 µM): 0.662
relative viability (Calu-6; first compound 2 µM): 0.526
relative viability (NCI-H1944; first compound 0.02 µM): 1.11
relative viability (NCI-H1944; first compound 0.6325 µM): 1.09
relative viability (NCI-H1944; first compound 2 µM): 0.67
relative viability (NCI-H661; first compound 0.02 µM): 1.08
relative viability (NCI-H661; first compound 0.6325 µM): 1.03
relative viability (NCI-H661; first compound 2 µM): 0.864
relative viability (SK-LU-1; first compound 0.02 µM): 0.774
relative viability (SK-LU-1; first compound 0.2 µM): 0.646
relative viability (SK-LU-1; first compound 0.6325 µM): 0.404
relative viability (SK-LU-1; first compound 2 µM): 0.331
relative viability (IA-LM; first compound 0.02 µM): 1.07
relative viability (IA-LM; first compound 0.2 µM): 1.08
relative viability (IA-LM; first compound 0.6325 µM): 1.24
relative viability (IA-LM; first compound 2 µM): 0.738
relative viability (NCI-H1666; first compound 0.02 µM): 1.04
relative viability (NCI-H1666; first compound 0.2 µM): 0.965
relative viability (NCI-H1666; first compound 0.6325 µM): 1.18
relative viability (NCI-H1666; first compound 2 µM): 0.926
relative viability (NCI-H1299; first compound 0.02 µM): 0.942
relative viability (NCI-H1299; first compound 0.2 µM): 0.948
relative viability (NCI-H1299; first compound 0.6325 µM): 0.985
relative viability (NCI-H1299; first compound 2 µM): 0.781
relative viability (PC-14; first compound 0.02 µM): 0.993
relative viability (PC-14; first compound 0.2 µM): 0.555
relative viability (PC-14; first compound 0.6325 µM): 0.424
relative viability (PC-14; first compound 2 µM): 0.167
relative viability (A549; first compound 0.02 µM): 0.74
relative viability (A549; first compound 0.2 µM): 0.738
relative viability (A549; first compound 0.6325 µM): 0.649
relative viability (A549; first compound 2 µM): 0.549
relative viability (EBC-1; first compound 0.02 µM): 0.174
relative viability (EBC-1; first compound 0.2 µM): 0.198
relative viability (EBC-1; first compound 0.6325 µM): 0.188
relative viability (EBC-1; first compound 2 µM): 0.181
relative viability (NCI-H596; first compound 0.02 µM): 0.727
relative viability (NCI-H596; first compound 0.2 µM): 0.775
relative viability (NCI-H596; first compound 0.6325 µM): 0.981
relative viability (NCI-H596; first compound 2 µM): 0.626
relative viability (NCI-H1703; first compound 0.02 µM): 0.553
relative viability (NCI-H1703; first compound 0.2 µM): 0.633
relative viability (NCI-H1703; first compound 0.6325 µM): 0.23
relative viability (NCI-H1703; first compound 2 µM): 0.0951
